Source: patent publication US12398140B2, “Substituted pyrrolo [2,3-d]pyrimidines for treating familial dysautonomia” (PTC THERAPEUTICS, INC., priority 2019, dated 2025)

Test system: Elongator complex protein 1 (ELPI, also referred to as IKBKAP)
Assay: IKBKAP-HTRF assay (IKBKAP protein in lysates of FD patient-derived fibroblasts)
Format: cell-based, human
Details: FD patient-derived fibroblasts GM04589, 48 hours, 7-point concentration curve
Summary of the method: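 FD patient-derived fibroblasts (10,000/well) treated 48 h at 37 °C with compound across a 7-point 3.16-fold series, in triplicate; lysates assayed by sandwich HTRF with two anti-IKAP antibodies, overnight at 4 °C, 665/620 nm read. MFI = ΔF over vehicle; EC2x = concentration doubling IKBKAP protein versus DMSO.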

| Compound | EC2x for IKBKAP protein expression (concentration producing two times the amount of IKBKAP protein vs DMSO vehicle control) | MFI (maximum fold increase in IKBKAP protein abundance relative to the vehicle control) |
| --- | --- | --- |
| C[C@H](N)Cc1c(F)c2c(NCc3ccccc3F)nc(Cl)nc2n1C.Cl [Cpd 53, 6-[(2S)-2-aminopropyl]-2-chloro-5-fluoro-N-[(2-fluorophenyl)methyl]-7-methyl-7H-pyrrolo[2,3-d]pyrimidin-4-amine hydrochloride] | *** (between >0.02 μM and ≤0.5 μM is indicated by three stars (***)) | **** (between >3.9 and ≤4.9 is indicated by four stars (****)) |
| C[C@H](N)Cc1[nH]c2nc(Cl)nc(NCc3ccccn3)c2c1F.Cl.Cl [Cpd 54, 6-[(2S)-2-aminopropyl]-2-chloro-5-fluoro-N-[(pyridin-2-yl)methyl]-7H-pyrrolo[2,3-d]pyrimidin-4-amine dihydrochloride] | *** (between >0.02 μM and ≤0.5 μM is indicated by three stars (***)) | ** (between >1.9 and ≤2.9 is indicated by two stars (**)) |
| C[C@H](N)Cc1c(F)c2c(NCc3ccccn3)nc(Cl)nc2n1C.Cl.Cl [Cpd 55, 6-[(2S)-2-aminopropyl]-2-chloro-5-fluoro-7-methyl-N-[(pyridin-2-yl)methyl]-7H-pyrrolo[2,3-d]pyrimidin-4-amine dihydrochloride] | * (An EC2x>1 μM is indicated by one star (*)) | * (An MFI≤1.9 is indicated by one star (*)) |
| C[C@H](N)Cc1[nH]c2nc(Cl)nc(NCc3cccnc3)c2c1F.Cl.Cl [Cpd 56, 6-[(2S)-2-aminopropyl]-2-chloro-5-fluoro-N-[(pyridin-3-yl)methyl]-7H-pyrrolo[2,3-d]pyrimidin-4-amine dihydrochloride] | * (An EC2x>1 μM is indicated by one star (*)) | * (An MFI≤1.9 is indicated by one star (*)) |
| C[C@H](N)Cc1c(F)c2c(NCc3cccnc3)nc(Cl)nc2n1C.Cl.Cl [Cpd 57, 6-[(2S)-2-aminopropyl]-2-chloro-5-fluoro-7-methyl-N-[(pyridin-3-yl)methyl]-7H-pyrrolo[2,3-d]pyrimidin-4-amine dihydrochloride] | * (An EC2x>1 μM is indicated by one star (*)) | * (An MFI≤1.9 is indicated by one star (*)) |
| CC[C@H](N)Cc1[nH]c2nc(Cl)nc(NCc3cccs3)c2c1F.Cl [Cpd 58, 6-[(2S)-2-aminobutyl]-2-chloro-5-fluoro-N-[(thiophen-2-yl)methyl]-7H-pyrrolo[2,3-d]pyrimidin-4-amine hydrochloride] | *** (between >0.02 μM and ≤0.5 μM is indicated by three stars (***)) | **** (between >3.9 and ≤4.9 is indicated by four stars (****)) |
| CC[C@H](N)Cc1[nH]c2nc(Cl)nc(NCc3nccs3)c2c1F.Cl [Cpd 59, 6-[(2S)-2-aminobutyl]-2-chloro-5-fluoro-N-[(1,3-thiazol-2-yl)methyl]-7H-pyrrolo[2,3-d]pyrimidin-4-amine hydrochloride] | *** (between >0.02 μM and ≤0.5 μM is indicated by three stars (***)) | ***** (>4.9 is indicated by five stars (*****)) |
| C[C@@H](N)Cc1c(F)c2c(NCc3ccco3)nc(Cl)nc2n1C.Cl [Cpd 60, 6-[(2R)-2-aminopropyl]-2-chloro-5-fluoro-N-[(furan-2-yl)methyl]-7-methyl-7H-pyrrolo[2,3-d]pyrimidin-4-amine hydrochloride] | * (An EC2x>1 μM is indicated by one star (*)) | * (An MFI≤1.9 is indicated by one star (*)) |
| C[C@H](N)Cc1cc2c(NCc3cscn3)nc(Cl)nc2[nH]1 [Cpd 61, 6-[(2S)-2-aminopropyl]-2-chloro-N-[(1,3-thiazol-4-yl)methyl]-7H-pyrrolo[2,3-d]pyrimidin-4-amine] | * (An EC2x>1 μM is indicated by one star (*)) | * (An MFI≤1.9 is indicated by one star (*)) |
| C[C@H](N)Cc1[nH]c2nc(Br)nc(NCc3ccco3)c2c1F [Cpd 62, 6-[(2S)-2-aminopropyl]-2-bromo-5-fluoro-N-[(furan-2-yl)methyl]-7H-pyrrolo[2,3-d]pyrimidin-4-amine] | **** (between >0.005 μM and ≤0.02 μM is indicated by four stars (****)) | ***** (>4.9 is indicated by five stars (*****)) |
